Assay results published in US11427586B2, “1,2,4-oxadiazole derivatives as liver X receptor agonists” (NOVARTIS AG, priority 2019, dated 2022).
Where two headings read alike, the source gives them in different places.

Key:
SZ95 sebocytes = assay: Sentinel Lipid Assay (SLA), desaturation index in SZ95 sebocytes; type: cell-based; conditions: Homo sapiens, 72 h; for EC50: desaturation index, lowest dose used 4.6 nM, read-out: SLA EC50
Protocol: Sentinel Lipid Assay (SLA)
The sentinel lipid assay was used quantify the change in the global desaturation index in SZ95 sebocytes upon administration of certain LXR agonist compounds provided herein. The assay measures a smaller subset of lipid analytes in meibum (termed “sentinel lipids”) which would model the global changes the population of both saturated and desaturated lipids in the cells. In order to define this smaller subset of lipids, a complete lipid profile was recorded on dose response curves (eight levels from 4 nM to 10 uM) of Compounds 1-72. An elastic net regression model was applied separately to both the saturated and desaturated lipids to determine the minimum combination of coefficients and analytes, which could be used to adequately model the total population of lipids. The elastic net model was able to reduce the behavior of 425 lipids to 11 lipids and the correlation between the desaturation indices observed using the complete set of lipids with from the 11 sentinel lipids was 0.96.
A medium throughput assay was created using this reduced set of sentinel lipids. A single batch is defined as triplicate examples of three unique plates (i.e., a single batch of cells is used to create nine plates for LC-MSMS analysis). Lipids were extracted from the cells using a 1:1 mixture of methylene chloride/methanol containing 10 nM of deuterated standards of triglycerides, which are used as internal standards for quantitating the lipid abundance. The lipids were separated prior to mass spectrometric analysis using a five minute HPLC gradient. The abundance of the sentinel lipids and the internal standards are measured using multiple reaction monitor mode (MRM) on a triple quadrupole mass spectrometer. The data was transformed from total ion current to nmoles/10^6 cells, which are multiplied by the coefficients from the elastic net model to determine the effective desaturated and saturated content, and therein the desaturation index of the dosed cells. In order to compare compounds from multiple batches with one another, the measure raw desaturation index was normalized by dividing it by the desaturation index of the DMSO dosed cells, and all data was assessed as the fraction by which the compound increases the desaturation index above 1.
SZ95 (immortalized human sebaceous gland cells) cells were seeded in Greiner bio-one 96-well polypropylene plates that were pre-treated with 50 μg/mL Human Plasma Fibronectin (Thermo Fisher Scientific) at a density of 10^4 cells/135 μl. Cells were incubated in a humidified incubator with 5% CO2 at 37° C. overnight. Test compounds were diluted at a ratio of 1:3 and added to cells at final concentrations starting from 10 μM. 2-(3-(3-((2-chloro-3-(trifluoromethyl)benzyl)(2,2-diphenylethyl)amino)propoxy)phenyl)acetic acid was used as a positive control reference compound in each plate. Cells in the assay plate were incubated in a humidified incubator with 5% CO2 at 37° C. for 72 h.
Culture medium was removed from the cells and cells in culture plates were washed with ice cold phosphate buffered saline three times. Plates were heat sealed and stored in a −80° C. freezer prior to Sentinel lipid assay. The Amax value refers to the percent EC50 of the tested compound compared to a reference compound, 2-(3-(3-((2-chloro-3-(trifluoromethyl)benzyl)(2,2-diphenylethyl)amino)propoxy)phenyl)acetic acid.

SCD1 = assay: Measurement of SCD1 expression in SZ95-SCD1-HiBit cells (HiBiT assay); type: cell-based; conditions: Homo sapiens, 48 h; for EC50: SCD1 protein production, luminescence, initial dilution 1:3 in DMSO, read-out: HiBit EC50
Description: Measurement of SCD1 Expression in SZ95-SCD1-HiBit Cells
SCD1 expression levels in SZ95 cells were quantitated using the HiBiT system (Promega) in which a small peptide sequence (SmBiT) with a larger protein (LgBiT) reconstitutes luciferase activity and can generate a luminescent signal used for quantitation. SZ95-SCD1-HiBit cells were generated by editing the SCD1 gene of SZ95 cells resulting in the addition of an 8 amino acid linker sequence (gssggssg, SEQ ID NO:1) followed by an 11-amino acid SmBiT sequence (vsgwrlfkkis, SEQ ID NO:2) at the carboxy-terminus of the SCD1 protein. The gRNA targeting sequence used was […] (SEQ ID NO: 3) and the SCD1 insertion oligonucleotide encoding the SmBiT sequence was:
SZ95-SCD1-HiBit cells were seeded in 384-well cell culture white plates at a density of 3000 cells/30 μl. Water was added to edge wells to avoid evaporation. Cells were incubated in a humidified incubator with 5% CO2 at 37° C. overnight. Tested compounds were diluted at a ratio of 1:3 in DMSO using an Agilent BRAVO Automated Liquid Handling Platform and, after further serial dilutions, added to cells at final concentrations starting from 18 μM. 2-(3-(3-((2-chloro-3-(trifluoromethyl)benzyl)(2,2-diphenylethyl)amino)propoxy)phenyl)acetic acid was used as a reference compound in each plate. Cells in the assay plate were incubated in a humidified incubator with 5% CO2 at 37° C. for 48 h.
The assay plates were removed from the incubator and allowed to equilibrate to room temperature. Nano-Glo® HiBiT Detection Reagent (Promega; a mixture of Nano-Glo HiBiT Detection Buffer, Nano-Glo HiBiT Detection Substrate, and LgBiT protein, according to the manufacturer's instructions) was added into assay plates, at a volume equal to cell culture medium in each well. Plates were placed on an orbital shaker at a speed of 300-600 rpm for 10 min at room temperature, and read on an EnVision Plate Reader using luminescence detection with a 1 second read time.
The assay measures the increase in SCD1 protein production in vitro. Amax refers to the percent EC50 of the tested compound compared to a reference compound, 2-(3-(3-((2-chloro-3-(trifluoromethyl)benzyl)(2,2-diphenylethyl)amino)propoxy)phenyl)acetic acid.

[1] = normalized Amax based on the reference compound Amax of 100%, read-out: SLA Normalized Amax
[2] = SZ95 cells, compared to reference compound, read-out: SLA Amax
[3] = normalized Amax based on the reference compound Amax of 100%, read-out: HiBit Normalized Amax
[4] = SZ95-SCD1-HiBit cells, compared to reference compound, read-out: HiBit Amax

CS(=O)(=O)c1ccccc1Oc1ccc(-c2noc(CN3C(=O)N(CCC4CCOCC4)C4(CCN(C5CCC5)CC4)C3=O)n2)cc1C(F)(F)F [Compound 17, 8-cyclobutyl-3-((3-(4-(2-(methylsulfonyl)phenoxy)-3-(trifluoromethyl)phenyl)-1,2,4-oxadiazol-5-yl)methyl)-1-(2-(tetrahydro-2H-pyran-4-yl)ethyl)-1,3,8-triazaspiro[4.5]decane-2,4-dione]
Emax (SZ95 sebocytes; [1]): 102% | EC50 (SZ95 sebocytes; SZ95 cells): ≤ 4.6 nM | Emax (SZ95 sebocytes; [2]): 97.4% | Emax (SCD1; [3]): 200% | EC50 (SCD1; SZ95-SCD1-HiBit cells): 0.041 nM | Emax (SCD1; [4]): 190%

O=C1N(Cc2nc(-c3ccc(Oc4ccccc4S(=O)(=O)CC4CCCO4)c(C(F)(F)F)c3)no2)C(=O)C2(CCN(C3CCC3)CC2)N1CCN1CCOCC1 (stereo not drawn) [Compound 18, 8-cyclobutyl-1-(2-morpholinoethyl)-3-((3-(4-(2-(((tetrahydrofuran-2-yl)methyl)sulfonyl)phenoxy)-3-(trifluoromethyl)phenyl)-1,2,4-oxadiazol-5-yl)methyl)-1,3,8-triazaspiro[4.5]decane-2,4-dione]
Emax (SZ95 sebocytes; [1]): 141% | EC50 (SZ95 sebocytes; SZ95 cells): ≤ 4.6 nM | Emax (SZ95 sebocytes; [2]): 135% | Emax (SCD1; [3]): 139% | EC50 (SCD1; SZ95-SCD1-HiBit cells): 0.133 nM | Emax (SCD1; [4]): 132%

O=C1N(Cc2nc(-c3ccc(Oc4ccccc4S(=O)(=O)CC4CCCO4)c(C(F)(F)F)c3)no2)C(=O)C2(CCN(C3CCC3)CC2)N1CCC1CCOCC1 (stereo not drawn) [Compound 19, 8-cyclobutyl-1-(2-(tetrahydro-2H-pyran-4-yl)ethyl)-3-((3-(4-(2-(((tetrahydrofuran-2-yl)methyl)sulfonyl)phenoxy)-3-(trifluoromethyl)phenyl)-1,2,4-oxadiazol-5-yl)methyl)-1,3,8-triazaspiro[4.5]decane-2,4-dione]
Emax (SZ95 sebocytes; [1]): 146% | EC50 (SZ95 sebocytes; SZ95 cells): ≤ 4.6 nM | Emax (SZ95 sebocytes; [2]): 140% | Emax (SCD1; [3]): 194% | EC50 (SCD1; SZ95-SCD1-HiBit cells): 0.042 nM | Emax (SCD1; [4]): 184%

CC(C)CS(=O)(=O)c1ccccc1Oc1ccc(-c2noc(CN3C(=O)N(CCN4CCOCC4)C4(CCN(Cc5ccc(O)cc5)CC4)C3=O)n2)cc1C(F)(F)F [Compound 20, 8-(4-hydroxybenzyl)-3-((3-(4-(2-(isobutylsulfonyl)phenoxy)-3-(trifluoromethyl)phenyl)-1,2,4-oxadiazol-5-yl)methyl)-1-(2-morpholinoethyl)-1,3,8-triazaspiro[4.5]decane-2,4-dione]
Emax (SZ95 sebocytes; [1]): 155% | EC50 (SZ95 sebocytes; SZ95 cells): ≤ 4.6 nM | Emax (SZ95 sebocytes; [2]): 149% | Emax (SCD1; [3]): 93.7% | EC50 (SCD1; SZ95-SCD1-HiBit cells): 0.078 nM | Emax (SCD1; [4]): 89.1%

CC(C)CS(=O)(=O)c1ccccc1Oc1ccc(-c2noc(CN3C(=O)N(CCN4CCOCC4)C4(CCN(Cc5cc(O)cc(O)c5)CC4)C3=O)n2)cc1C(F)(F)F [Compound 21, 8-(3,5-dihydroxybenzyl)-3-((3-(4-(2-(isobutylsulfonyl)phenoxy)-3-(trifluoromethyl)phenyl)-1,2,4-oxadiazol-5-yl)methyl)-1-(2-morpholinoethyl)-1,3,8-triazaspiro[4.5]decane-2,4-dione]
Emax (SZ95 sebocytes; [1]): 102% | EC50 (SZ95 sebocytes; SZ95 cells): ≤ 4.6 nM | Emax (SZ95 sebocytes; [2]): 97.5% | Emax (SCD1; [3]): 83.7% | EC50 (SCD1; SZ95-SCD1-HiBit cells): 0.241 nM | Emax (SCD1; [4]): 79.6%

CC(C)CS(=O)(=O)c1ccccc1Oc1ccc(-c2noc(CN3C(=O)N(CCN4CCOCC4)C4(CCN(C5CCN(C)CC5)CC4)C3=O)n2)cc1C(F)(F)F [Compound 22, 3-((3-(4-(2-(isobutylsulfonyl)phenoxy)-3-(trifluoromethyl)phenyl)-1,2,4-oxadiazol-5-yl)methyl)-8-(1-methylpiperidin-4-yl)-1-(2-morpholinoethyl)-1,3,8-triazaspiro[4.5]decane-2,4-dione]
Emax (SZ95 sebocytes; [1]): 160% | EC50 (SZ95 sebocytes; SZ95 cells): ≤ 4.6 nM | Emax (SZ95 sebocytes; [2]): 154% | Emax (SCD1; [3]): 135% | EC50 (SCD1; SZ95-SCD1-HiBit cells): 1.83 nM | Emax (SCD1; [4]): 129%

CC(C)CS(=O)(=O)c1ccccc1Oc1ccc(-c2noc(CN3C(=O)N(CCN4CCOCC4)C4(CCN(C5CCN(C)C5)CC4)C3=O)n2)cc1C(F)(F)F (stereo not drawn) [Compound 23, 3-((3-(4-(2-(isobutylsulfonyl)phenoxy)-3-(trifluoromethyl)phenyl)-1,2,4-oxadiazol-5-yl)methyl)-8-(1-methylpyrrolidin-3-yl)-1-(2-morpholinoethyl)-1,3,8-triazaspiro[4.5]decane-2,4-dione]
Emax (SZ95 sebocytes; [1]): 176% | EC50 (SZ95 sebocytes; SZ95 cells): ≤ 4.6 nM | Emax (SZ95 sebocytes; [2]): 169% | Emax (SCD1; [3]): 85.1% | EC50 (SCD1; SZ95-SCD1-HiBit cells): 3.48 nM | Emax (SCD1; [4]): 80.9%

CCN1CCC2(CC1)C(=O)N(Cc1nc(-c3ccc(Oc4ccccc4S(=O)(=O)CC(C)C)c(C(F)(F)F)c3)no1)C(=O)N2CCN1CCOCC1 [Compound 24, 8-ethyl-3-((3-(4-(2-(isobutylsulfonyl)phenoxy)-3-(trifluoromethyl)phenyl)-1,2,4-oxadiazol-5-yl)methyl)-1-(2-morpholinoethyl)-1,3,8-triazaspiro[4.5]decane-2,4-dione]
Emax (SZ95 sebocytes; [1]): 164% | EC50 (SZ95 sebocytes; SZ95 cells): ≤ 4.6 nM | Emax (SZ95 sebocytes; [2]): 158% | Emax (SCD1; [3]): 117% | EC50 (SCD1; SZ95-SCD1-HiBit cells): 0.05 nM | Emax (SCD1; [4]): 111%

CC(C)CS(=O)(=O)c1ccccc1Oc1ccc(-c2noc(CN3C(=O)N(CCN4CCOCC4)C4(CCN(Cc5cccnn5)CC4)C3=O)n2)cc1C(F)(F)F [Compound 25, 3-((3-(4-(2-(isobutylsulfonyl)phenoxy)-3-(trifluoromethyl)phenyl)-1,2,4-oxadiazol-5-yl)methyl)-1-(2-morpholinoethyl)-8-(pyridazin-3-ylmethyl)-1,3,8-triazaspiro[4.5]decane-2,4-dione]
Emax (SZ95 sebocytes; [1]): 190% | EC50 (SZ95 sebocytes; SZ95 cells): ≤ 4.6 nM | Emax (SZ95 sebocytes; [2]): 182% | Emax (SCD1; [3]): 98.2% | EC50 (SCD1; SZ95-SCD1-HiBit cells): 1.62 nM | Emax (SCD1; [4]): 93.4%

CC(C)CS(=O)(=O)c1ccccc1Oc1ccc(-c2noc(CN3C(=O)N(CCN4CCOCC4)C4(CCN(CC5CCOCC5)CC4)C3=O)n2)cc1C(F)(F)F [Compound 26, 3-((3-(4-(2-(isobutylsulfonyl)phenoxy)-3-(trifluoromethyl)phenyl)-1,2,4-oxadiazol-5-yl)methyl)-1-(2-morpholinoethyl)-8-((tetrahydro-2H-pyran-4-yl)methyl)-1,3,8-triazaspiro[4.5]decane-2,4-dione]
Emax (SZ95 sebocytes; [1]): 113% | EC50 (SZ95 sebocytes; SZ95 cells): ≤ 4.6 nM | Emax (SZ95 sebocytes; [2]): 108% | Emax (SCD1; [3]): 96.3% | EC50 (SCD1; SZ95-SCD1-HiBit cells): 0.796 nM | Emax (SCD1; [4]): 91.6%
